Measured values: US20250152585A1, “PHARMACEUTICAL COMPOUND” (Duke Street Bio Limited, priority 2022, published 2025)

What was measured:
[1] = biological target: T1, N-terminally FLAG-tagged PARP2 (amino acids 1-583) (Homo sapiens, UniProt Q9UGN5); experiment: PARP2 probe displacement HTRF assay; assay type: binding; settings: binned Kd, probe displacement HTRF
T1 construct: N-terminally FLAG-tagged PARP2 (amino acids 1-583)
Method: Data analysis was performed identical as for PARP1.

[2] = biological target: T2, full length N-terminally FLAG-tagged PARP1 (Homo sapiens, UniProt P09874); experiment: PARP1 probe displacement HTRF assay; settings: probe displacement HTRF; for Selectivity: PARP1 over PARP2, ratio Kd (PARP2)/Kd (PARP1); for Kd: read-out: PARP1 HTRF, binned Kd
[3] = biological target: T2, full length N-terminally FLAG-tagged PARP1; experiment: PARP1 biochemical DELFIA assay (auto-PARylation); design: recombinant full length human N-terminally FLAG-tagged PARP1; settings: binned IC50, biochemical auto-PARylation assay

T1 sequence (Q9UGN5 whole entry, the tested form may be a part): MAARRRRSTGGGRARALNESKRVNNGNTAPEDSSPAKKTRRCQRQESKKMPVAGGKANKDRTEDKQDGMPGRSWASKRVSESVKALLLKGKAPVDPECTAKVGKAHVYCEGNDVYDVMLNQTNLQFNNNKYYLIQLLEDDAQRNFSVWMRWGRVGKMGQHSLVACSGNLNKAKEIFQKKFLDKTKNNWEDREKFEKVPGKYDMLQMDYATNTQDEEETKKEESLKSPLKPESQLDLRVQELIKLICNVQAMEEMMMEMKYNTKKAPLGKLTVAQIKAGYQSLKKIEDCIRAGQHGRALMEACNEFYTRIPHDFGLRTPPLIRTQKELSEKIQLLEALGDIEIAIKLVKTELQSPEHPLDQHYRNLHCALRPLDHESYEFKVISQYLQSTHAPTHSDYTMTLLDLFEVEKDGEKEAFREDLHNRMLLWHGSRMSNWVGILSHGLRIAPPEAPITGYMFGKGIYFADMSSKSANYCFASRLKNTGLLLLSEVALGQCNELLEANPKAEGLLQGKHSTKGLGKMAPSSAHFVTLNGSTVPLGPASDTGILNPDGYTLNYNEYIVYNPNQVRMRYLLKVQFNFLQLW
T2 sequence (P09874 whole entry): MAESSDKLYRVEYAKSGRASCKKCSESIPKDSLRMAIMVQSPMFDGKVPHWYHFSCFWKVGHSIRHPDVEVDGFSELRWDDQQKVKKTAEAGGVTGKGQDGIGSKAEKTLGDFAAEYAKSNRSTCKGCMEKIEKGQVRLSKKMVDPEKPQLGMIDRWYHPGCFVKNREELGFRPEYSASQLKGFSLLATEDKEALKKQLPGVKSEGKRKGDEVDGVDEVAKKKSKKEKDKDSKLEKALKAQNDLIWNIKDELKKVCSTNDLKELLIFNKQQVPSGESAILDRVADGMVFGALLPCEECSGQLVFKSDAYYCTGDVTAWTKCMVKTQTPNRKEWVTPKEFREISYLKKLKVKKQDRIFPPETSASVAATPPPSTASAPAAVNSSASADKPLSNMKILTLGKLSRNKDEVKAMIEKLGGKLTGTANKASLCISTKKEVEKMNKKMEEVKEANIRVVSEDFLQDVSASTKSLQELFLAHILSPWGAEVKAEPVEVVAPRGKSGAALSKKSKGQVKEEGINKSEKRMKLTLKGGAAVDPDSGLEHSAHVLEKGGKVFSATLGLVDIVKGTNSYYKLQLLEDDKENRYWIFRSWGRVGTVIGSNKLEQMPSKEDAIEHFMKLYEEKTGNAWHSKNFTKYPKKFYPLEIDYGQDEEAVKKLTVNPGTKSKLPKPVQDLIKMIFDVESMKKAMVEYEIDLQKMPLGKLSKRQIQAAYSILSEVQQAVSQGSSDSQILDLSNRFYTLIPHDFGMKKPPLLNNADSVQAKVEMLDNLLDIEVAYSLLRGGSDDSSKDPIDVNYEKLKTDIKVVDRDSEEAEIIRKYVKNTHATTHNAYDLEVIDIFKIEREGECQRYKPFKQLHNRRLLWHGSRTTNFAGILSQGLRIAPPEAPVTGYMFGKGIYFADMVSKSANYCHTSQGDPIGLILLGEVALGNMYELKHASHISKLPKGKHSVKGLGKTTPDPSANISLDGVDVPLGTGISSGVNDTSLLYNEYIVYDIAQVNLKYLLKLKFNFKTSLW

Row | Structure (SMILES) | Kd [1] [nM] | Selectivity [2] | Kd [2] [nM] | IC50 [3] [nM]
1 | CCCc1ccc(C2CCN(C3CCN(c4ccc(C(=O)NC)nc4)CC3)C2)[nH]c1=O (single isomer, unassigned) [Compound 261b] | 1000 to 10000 | +++ (+++ indicate a value of at least 100) | < 10 | < 10
2 | CC(=O)Nc1ccc(N2CCC(N3CCC(c4nc5ccccc5c(=O)[nH]4)C3)CC2)cn1 (single isomer, unassigned) [Compound 262a] | 1000 to 10000 | − (− indicates a value of less than 10) | 1000 to 10000 | 100 to 1000
3 | CC(=O)Nc1ccc(N2CCC(N3CCC(c4nc5ccccc5c(=O)[nH]4)C3)CC2)cn1 (single isomer, unassigned) [Compound 262b] | 1000 to 10000 | + (+ indicates a value of 10 to less than 50) | 100 to 1000 | 100 to 1000
4 | CNC(=O)c1ncc(N2CCC(N3CCC(c4cc5ccc(F)cc5c(=O)[nH]4)C3)CC2)c(C)n1 (single isomer, unassigned) [Compound 265a] | 1000 to 10000 | +++ (+++ indicate a value of at least 100) | < 10 | < 10
5 | CNC(=O)c1ncc(N2CCC(N3CCC(c4cc5ccc(F)cc5c(=O)[nH]4)C3)CC2)c(C)n1 (single isomer, unassigned) [Compound 265b] | 100 to 1000 | +++ (+++ indicate a value of at least 100) | < 10 | < 10
6 | CNC(=O)c1ncc(N2CCC(N3CCC(c4cc5ccc(F)cc5c(=O)[nH]4)C3)CC2)c(C(F)(F)F)n1 (single isomer, unassigned) [Compound 266a] | 100 to 1000 | +++ (+++ indicate a value of at least 100) | < 10 | < 10
7 | CNC(=O)c1ncc(N2CCC(N3CCC(c4cc5ccc(F)cc5c(=O)[nH]4)C3)CC2)c(C(F)(F)F)n1 (single isomer, unassigned) [Compound 266b] | > 10000 | +++ (+++ indicate a value of at least 100) | 10 to 100 | 10 to 100
8 | CNC(=O)c1ccc(N2CCC(N3CCC(c4nc5[nH]nc(C(F)(F)F)c5c(=O)[nH]4)C3)CC2)c(F)n1 (single isomer, unassigned) [Compound 267a] | 100 to 1000 | + (+ indicates a value of 10 to less than 50) | 10 to 100 | 10 to 100
9 | CNC(=O)c1ccc(N2CCC(N3CCC(c4nc5[nH]nc(C(F)(F)F)c5c(=O)[nH]4)C3)CC2)c(F)n1 (single isomer, unassigned) [Compound 267b] | 10 to 100 | +++ (+++ indicate a value of at least 100) | < 10 | < 10
10 | CCCc1ccc(C2CCN(C3CCN(c4ccc(C(=O)NC)nc4F)CC3)C2)[nH]c1=O (single isomer, unassigned) [Compound 269a] | 1000 to 10000 | +++ (+++ indicate a value of at least 100) | < 10 | < 10
11 | CCCc1ccc(C2CCN(C3CCN(c4ccc(C(=O)NC)nc4F)CC3)C2)[nH]c1=O (single isomer, unassigned) [Compound 269b] | > 10000 | + (+ indicates a value of 10 to less than 50) | 100 to 1000 | 100 to 1000
12 | CNC(=O)c1ccc(N2CCC(N3CCC(c4cc5ccc(F)cc5c(=O)[nH]4)C3)CC2)cc1F (single isomer, unassigned) [Compound 270a] | 10 to 100 | − (− indicates a value of less than 10) | 10 to 100 | 10 to 100
13 | CNC(=O)c1ccc(N2CCC(N3CCC(c4cc5ccc(F)cc5c(=O)[nH]4)C3)CC2)cc1F (single isomer, unassigned) [Compound 270b] | 10 to 100 | + (+ indicates a value of 10 to less than 50) | < 10 | < 10
14 | CNC(=O)c1ccc(N2CCC(N3CCC(c4nc5c(c(=O)[nH]4)COC5)C3)CC2)cn1 (single isomer, unassigned) [Compound 272a] | > 10000 | − (− indicates a value of less than 10) | > 10000 | > 10000
15 | CNC(=O)c1ccc(N2CCC(N3CCC(c4nc5c(c(=O)[nH]4)COC5)C3)CC2)cn1 (single isomer, unassigned) [Compound 272b] | > 10000 | + (+ indicates a value of 10 to less than 50) | 100 to 1000 | 100 to 1000
16 | CC(=O)Nc1ccc(N2CCC(N3CCC(c4cc5ccccc5c(=O)[nH]4)C3)CC2)c(Cl)c1 (single isomer, unassigned) [Compound 273a] | 1000 to 10000 | − (− indicates a value of less than 10) | 100 to 1000 | 100 to 1000
17 | CNC(=O)c1csc(N2CCC(N3CCC(c4cc5ccccc5c(=O)[nH]4)C3)CC2)n1 (single isomer, unassigned) [Compound 274a] | 1000 to 10000 | − (− indicates a value of less than 10) | 100 to 1000 | 100 to 1000
18 | CNC(=O)c1ncc(N2CCC(N3CCC(c4cc5cccc(F)c5c(=O)[nH]4)C3)CC2)c(C(F)(F)F)n1 (single isomer, unassigned) [Compound 277a] | 1000 to 10000 | +++ (+++ indicate a value of at least 100) | < 10 | < 10
19 | CNC(=O)c1ncc(N2CCC(N3CCC(c4cc5cccc(F)c5c(=O)[nH]4)C3)CC2)c(C(F)(F)F)n1 (single isomer, unassigned) [Compound 277b] | > 10000 | ++ (++ indicates a value of 50 to less than 100) | 10 to 100 | 10 to 100
20 | CNC(=O)c1ccc(N2CCC(N3CCC(c4cnc(C(F)(F)F)c(=O)[nH]4)C3)CC2)cn1 (single isomer, unassigned) [Compound 279a] | > 10000 | + (+ indicates a value of 10 to less than 50) | 100 to 1000 | 100 to 1000
21 | CNC(=O)c1ccc(N2CCC(N3CCC(c4cnc(C(F)(F)F)c(=O)[nH]4)C3)CC2)cn1 (single isomer, unassigned) [Compound 279b] | > 10000 | − (− indicates a value of less than 10) | 1000 to 10000 | 1000 to 10000
22 | CNC(=O)c1ccc(N2CCC(N3CCC(c4cc5[nH]nc(C(F)(F)F)c5c(=O)[nH]4)C3)CC2)c(F)n1 (single isomer, unassigned) [Compound 280a] | 1000 to 10000 | ++ (++ indicates a value of 50 to less than 100) | 10 to 100 | 10 to 100
23 | CNC(=O)c1ccc(N2CCC(N3CCC(c4cc5[nH]nc(C(F)(F)F)c5c(=O)[nH]4)C3)CC2)c(F)n1 (single isomer, unassigned) [Compound 280b] | 10 to 100 | ++ (++ indicates a value of 50 to less than 100) | < 10 | < 10
24 | CNC(=O)c1ccc(N2CCC(N3CCC(c4cc5cccc(F)c5c(=O)[nH]4)C3)CC2)cc1F (single isomer, unassigned) [Compound 281a] | 10 to 100 | + (+ indicates a value of 10 to less than 50) | < 10 | < 10
25 | CNC(=O)c1ccc(N2CCC(N3CCC(c4cc5cccc(F)c5c(=O)[nH]4)C3)CC2)cc1F (single isomer, unassigned) [Compound 281b] | 100 to 1000 | − (− indicates a value of less than 10) | 100 to 1000 | 100 to 1000
